1 compound from article PMC9310948 (Chemcatchem, 2022) can be followed below.

This assay has as its target H. orenii β-glucosidase (GH1) (Halothermothrix orenii, UniProt B8CYA8). As to the kind of experiment: p-nitrophenol release, absorbance […] nm. In kind it is biochemical. As to conditions: 50 mM HEPES pH 7.4, 10 mM substrate.

The structures appear in SMILES notation.

Chain of H. orenii β-glucosidase (GH1) (B8CYA8 1-451): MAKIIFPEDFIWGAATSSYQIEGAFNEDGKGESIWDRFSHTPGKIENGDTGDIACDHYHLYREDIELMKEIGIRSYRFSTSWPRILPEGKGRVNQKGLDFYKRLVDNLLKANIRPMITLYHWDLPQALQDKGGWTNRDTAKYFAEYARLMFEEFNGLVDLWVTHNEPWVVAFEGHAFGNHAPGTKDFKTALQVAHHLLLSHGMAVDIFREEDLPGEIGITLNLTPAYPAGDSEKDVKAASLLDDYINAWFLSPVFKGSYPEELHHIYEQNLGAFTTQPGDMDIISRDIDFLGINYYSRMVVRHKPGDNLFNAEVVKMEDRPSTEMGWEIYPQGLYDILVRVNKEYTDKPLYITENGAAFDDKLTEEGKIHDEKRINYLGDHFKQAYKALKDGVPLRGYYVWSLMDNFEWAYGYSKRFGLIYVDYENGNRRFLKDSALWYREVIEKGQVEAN

For the compound `O=[N+]([O-])c1ccc(O[C@@H]2O[C@H](CO)[C@@H](O)[C@H](O)[C@H]2O)cc1` [p-nitrophenyl glucoside], the “p-nitrophenol release, absorbance 420 nm” value is listed as “monitoring the enzymatic rate of hydrolysis of p‐nitrophenyl glucoside by a UV‐Vis assay”.
